Measurements: patent US11999727B2 (Tango Therapeutics, Inc., priority 2020, dated 2024)

Legend:
[1] = target: T1, PRMT5 (Homo sapiens, UniProt O14744); assay: PRMT5 biochemical IC50 assay with MTA as cofactor; details: PRMT5, MTA as cofactor; read-out: MTA IC50
T1 construct: purchased Viva (custom protein)

[2] = system: HAP1 MTAP-deleted cell line; assay: SDMA in-cell western assay, HAP1 MTAP-deleted; assay type: cell-based; details: for IC50: Homo sapiens, HAP1, SDMA in-cell western, HAP1 MTAP-deleted, read-out: HAP1 MTAP deleted IC50; for MTAP intact/deleted ratio: IC50 ratio HAP1 MTAP-intact / HAP1 MTAP-deleted, SDMA in-cell western
Outline: (§1)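 MTAP-null vs endogenous-MTAP HAP1 isogenic cells; in-cell western SDMA readout; IC50 per line.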

[3] = system: HAP1 MTAP-intact cell line; assay: SDMA in-cell western assay, HAP1 MTAP-intact; assay type: cell-based; details: Homo sapiens, HAP1, SDMA in-cell western, HAP1 MTAP-intact; read-out: MTAP HAP1 intact IC50
Outline: as §1

[4] = target: T1, PRMT5; assay: PRMT5 biochemical IC50 assay with no cofactor; details: PRMT5, no cofactor; read-out: No Cofactor/rel IC50
From the text: Table 1 indicates IC50 values (μM) against PRMT5 for exemplary compounds in the presence of SAM as cofactor, with no cofactor, and with MTA as cofactor, respectively (columns 4-6). […] Ki values can be calculated from the IC50 values as described in the Examples section. As detailed in the Examples section, for the assay performed in the presence of SAM, IC50=Ki×1.5 (Ki=IC50/1.5).

[5] = target: T1, PRMT5; assay: PRMT5 biochemical IC50 assay with SAM as cofactor; details: PRMT5, SAM as cofactor; read-out: SAM IC50
[6] = system: HAP1 MTAP-deleted cell line; assay: Viability assay, MTAP-deleted cell line; assay type: cell-based; details: Homo sapiens, HAP1, viability assay, HAP1 MTAP-deleted; read-out: HAP1 MTAP deleted viability
From the text: Table 1 additionally indicates IC50 values in a viability assay for the MTAP-deleted cell line (column 10), indicating the effect of treatment with compound on cell survival.

T1 sequence (O14744 whole entry): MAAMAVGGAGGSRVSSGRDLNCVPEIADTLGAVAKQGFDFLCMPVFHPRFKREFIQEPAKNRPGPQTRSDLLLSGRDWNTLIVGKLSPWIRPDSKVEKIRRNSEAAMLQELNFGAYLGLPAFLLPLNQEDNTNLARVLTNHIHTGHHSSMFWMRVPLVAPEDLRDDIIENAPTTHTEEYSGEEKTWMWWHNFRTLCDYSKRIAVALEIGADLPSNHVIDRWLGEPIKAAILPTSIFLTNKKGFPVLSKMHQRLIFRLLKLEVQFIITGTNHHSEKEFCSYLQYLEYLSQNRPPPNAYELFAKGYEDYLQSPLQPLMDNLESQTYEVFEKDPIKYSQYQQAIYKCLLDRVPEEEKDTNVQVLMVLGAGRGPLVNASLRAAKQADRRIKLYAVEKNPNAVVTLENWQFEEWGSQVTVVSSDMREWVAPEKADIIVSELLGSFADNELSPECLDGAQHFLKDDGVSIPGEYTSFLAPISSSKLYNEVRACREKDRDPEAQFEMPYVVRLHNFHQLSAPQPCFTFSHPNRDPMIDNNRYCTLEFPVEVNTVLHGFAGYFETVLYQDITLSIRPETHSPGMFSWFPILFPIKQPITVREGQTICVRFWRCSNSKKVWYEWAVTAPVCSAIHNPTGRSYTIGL
T1 sequence (Q9BQA1 whole entry partner): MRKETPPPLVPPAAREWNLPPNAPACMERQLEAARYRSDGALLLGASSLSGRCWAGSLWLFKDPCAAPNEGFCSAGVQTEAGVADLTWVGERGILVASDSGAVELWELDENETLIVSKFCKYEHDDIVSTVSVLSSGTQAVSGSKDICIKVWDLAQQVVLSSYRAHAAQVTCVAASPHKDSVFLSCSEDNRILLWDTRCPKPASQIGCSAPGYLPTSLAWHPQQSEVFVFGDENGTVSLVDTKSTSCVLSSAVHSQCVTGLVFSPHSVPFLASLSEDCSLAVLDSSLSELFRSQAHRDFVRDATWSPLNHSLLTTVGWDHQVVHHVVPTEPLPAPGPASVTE

| Compound | IC50 [1] [nM] | IC50 [2] [nM] | MTAP intact/deleted ratio [2] | IC50 [3] [nM] | IC50 [4] [nM] | IC50 [5] [nM] | IC50 [6] [nM] |
| --- | --- | --- | --- | --- | --- | --- | --- |
| C[C@@H]1CC[C@@H](c2ccc(S(N)(=O)=O)cc2)N(C(=O)C(=O)Nc2cncc(C(N)=O)c2)C1 (single isomer, unassigned) [Compound 725] | < 50 | > 1000 | C (an IC50 ratio of less than 3 fold) | > 1000 | 50 to 500 | 50 to 500 | > 10000 |
| Cc1ncc(NC(=O)C(=O)N2C[C@H](C)CC[C@H]2c2ccc3c(c2)CCC(=O)N3)cc1Cl (single isomer, unassigned) [Compound 726] | < 50 | < 100 | A (an IC50 ratio greater than or equal to 10 fold) | > 1000 | < 50 | 50 to 500 | < 1000 |
| Cc1ncc(NC(=O)C(=O)N2C[C@@H](C)CC[C@@H]2c2ccc3c(c2)CCC(=O)N3)cc1Cl (single isomer, unassigned) [Compound 727] | > 500 | > 1000 | C (an IC50 ratio of less than 3 fold) | > 1000 | > 500 | > 500 | > 10000 |
| CCc1cc(NC(=O)C(=O)N2C[C@H](C)C(F)(F)C[C@H]2c2ccc(F)c(F)c2)cnc1N (single isomer, unassigned) [Compound 728] | > 500 | > 1000 | C (an IC50 ratio of less than 3 fold) | > 1000 | > 500 | > 500 | > 10000 |
| CCc1cc(NC(=O)C(=O)N2C[C@@H](C)CC[C@@H]2c2ccc3c(c2)CCC(=O)N3)cnc1N (single isomer, unassigned) [Compound 729] | > 500 | 100 to 1000 | A (an IC50 ratio greater than or equal to 10 fold) | > 1000 | > 500 | > 500 | 1000 to 10000 |
| Cc1nc2cc([C@@H]3CC[C@@H](C)CN3C(=O)C(=O)Nc3cnc(N)c(C)c3)ccc2s1 (single isomer, unassigned) [Compound 730] | > 500 | > 1000 | C (an IC50 ratio of less than 3 fold) | > 1000 | > 500 | > 500 | > 10000 |
| C[C@H]1CN(C(=O)C(=O)Nc2cncc(C(N)=O)c2)[C@H](c2ccc(F)cc2)CC1(F)F (single isomer, unassigned) [Compound 731] | < 50 | < 100 | A (an IC50 ratio greater than or equal to 10 fold) | > 1000 | 50 to 500 | 50 to 500 | 1000 to 10000 |
| CC(=O)Nc1ccc([C@@H]2CC[C@@H](C)CN2C(=O)C(=O)Nc2cnc(N)c(C)c2)s1 (single isomer, unassigned) [Compound 732] | < 50 | 100 to 1000 | A (an IC50 ratio greater than or equal to 10 fold) | > 1000 | 50 to 500 | 50 to 500 | 1000 to 10000 |
| Cc1cc(NC(=O)C(=O)N2C[C@@H](C)CC[C@@H]2c2ccc(C(N)=O)s2)cnc1N (single isomer, unassigned) [Compound 733] | < 50 | < 100 | A (an IC50 ratio greater than or equal to 10 fold) | 100 to 1000 | < 50 | 50 to 500 | < 1000 |
| Cc1cc(NC(=O)C(=O)N2C[C@@H](C)CC[C@@H]2c2cc(F)cc(F)c2)cnc1N (single isomer, unassigned) [Compound 734, N-(6-amino-5-methylpyridin-3-yl)-2-(2-(3,5-difluorophenyl)-5-methylpiperidin-1-yl)-2-oxoacetamide] | < 50 | < 100 | A (an IC50 ratio greater than or equal to 10 fold) | > 1000 | < 50 | 50 to 500 | 1000 to 10000 |
| Cc1cc(NC(=O)C(=O)N2C[C@H](C)C(F)(F)C[C@H]2c2ccccc2)cnc1N (single isomer, unassigned) [Compound 735] | < 50 | < 100 | A (an IC50 ratio greater than or equal to 10 fold) | 100 to 1000 | < 50 | < 50 | < 1000 |
| CCc1cc(NC(=O)C(=O)N2C[C@H](C)CC[C@H]2c2ccccc2)cnc1N (single isomer, unassigned) [Compound 736] | < 50 | < 100 | A (an IC50 ratio greater than or equal to 10 fold) | > 1000 | < 50 | 50 to 500 | < 1000 |
| COc1ncc(NC(=O)C(=O)N2C[C@@H](C)CC[C@@H]2c2cc(F)c(F)c(F)c2)cc1C(N)=O (single isomer, unassigned) [Compound 739] | > 500 | > 1000 | B (an IC50 ratio greater than or equal to 3 fold but lower than 10 fold) | > 1000 | > 500 | > 500 | > 10000 |
| C[C@@H]1CC[C@@H](c2ccc3c(c2)CNC3=O)N(C(=O)C(=O)Nc2cncc(C(N)=O)c2)C1 (single isomer, unassigned) [Compound 740, 5-(2-(5-methyl-2-(1-oxoisoindolin-5-yl)piperidin-1-yl)-2-oxoacetamido)nicotinamide] | < 50 | > 1000 | B (an IC50 ratio greater than or equal to 3 fold but lower than 10 fold) | > 1000 | 50 to 500 | 50 to 500 | 1000 to 10000 |
| C[C@H]1CC[C@H](c2ccc3c(c2)CNC3=O)N(C(=O)C(=O)Nc2cncc(C(N)=O)c2)C1 (single isomer, unassigned) [Compound 741, 5-(2-(5-methyl-2-(1-oxoisoindolin-5-yl)piperidin-1-yl)-2-oxoacetamido)nicotinamide] | > 500 | > 1000 | C (an IC50 ratio of less than 3 fold) | > 1000 | > 500 | > 500 | > 10000 |
| COc1ncc(NC(=O)C(=O)N2C[C@H](C)CC[C@H]2c2cc(F)c(F)c(F)c2)cc1C(N)=O (single isomer, unassigned) [Compound 742] | < 50 | 100 to 1000 | A (an IC50 ratio greater than or equal to 10 fold) | > 1000 | 50 to 500 | 50 to 500 | 1000 to 10000 |
| C[C@@H]1CC[C@@H](c2ccc3c(c2)C(=O)NC3)N(C(=O)C(=O)Nc2cncc(C(N)=O)c2)C1 (single isomer, unassigned) [Compound 746] | < 50 | 100 to 1000 | A (an IC50 ratio greater than or equal to 10 fold) | > 1000 | < 50 | 50 to 500 | 1000 to 10000 |
| CCc1cc(NC(=O)C(=O)N2C[C@@H](C)CC[C@@H]2c2ccc3[nH]cnc3c2)cnc1N (single isomer, unassigned) [Compound 748] | < 50 | < 100 | A (an IC50 ratio greater than or equal to 10 fold) | 100 to 1000 | < 50 | 50 to 500 | < 1000 |
| COc1ncc(NC(=O)C(=O)N2C[C@H](C)CC[C@H]2c2ccc3c(c2)CNC3=O)cc1C(N)=O (single isomer, unassigned) [Compound 749, 2-methoxy-5-(2-(5-methyl-2-(1-oxoisoindolin-5-yl)piperidin-1-yl)-2-oxoacetamido)nicotinamide] | < 50 | 100 to 1000 | A (an IC50 ratio greater than or equal to 10 fold) | > 1000 | 50 to 500 | 50 to 500 | 1000 to 10000 |
| COc1ncc(NC(=O)C(=O)N2C[C@@H](C)CC[C@@H]2c2ccc3c(c2)CNC3=O)cc1C(N)=O (single isomer, unassigned) [Compound 750, 2-methoxy-5-(2-(5-methyl-2-(1-oxoisoindolin-5-yl)piperidin-1-yl)-2-oxoacetamido)nicotinamide] | > 500 | > 1000 | C (an IC50 ratio of less than 3 fold) | > 1000 | > 500 | > 500 | > 10000 |
| C[C@H]1CC[C@H](c2ccc3c(c2)C(=O)NC3)N(C(=O)C(=O)Nc2cncc(C(N)=O)c2)C1 (single isomer, unassigned) [Compound 751] | > 500 | > 1000 | C (an IC50 ratio of less than 3 fold) | > 1000 | > 500 | > 500 | > 10000 |
